Read-outs that look alike come from different tables or passages of the source.
Key:
[1] = test system: A549; assay: In vivo solid tumor disease model, A549 xenograft; set-up: species or system female athymic CD 1 mice
[2] = biological target: T1, recombinant human c-Met/HGF receptor (Homo sapiens, UniProt P08581); assay: In vitro receptor tyrosine kinase assay (DELFIA), c-Met/HGF receptor; type: biochemical; conditions: ATP 10 uM, enzyme 25 nM
T1 construct: His tag (histidine tag from pBlueBacHis2A); made in house; host or cells: Hi-5 cells (Trichoplusia ni), recombinant baculovirus

[3] = biological target: T2, VEGF receptor KDR (Homo sapiens, UniProt P35968); assay: In vitro receptor tyrosine kinase assay (DELFIA), VEGF receptor KDR; type: biochemical; conditions: ATP 0.6 uM, enzyme 5 nM
T2 construct: made in house; host or cells: Sf9 cells (Spodoptera frugiperda), recombinant baculovirus
Source text: In Vitro Receptor Tyrosine Kinase Assays (c-Met/HGF receptor and VEGF Receptor KDR)
In the case of VEGF receptor KDR a 1.6-kb cDNA corresponding to the catalytic domain of VEGFR2 or KDR (Genbank accession number AF035121 amino acid 806 to 1356) was cloned into the Pst I site of the pDEST20 Gateway vector (Invitrogen) for the production of a GST-tagged version of that enzyme.
The GST-VEGFR2806-1356 protein was expressed in Sf9 cells (Spodoptera frugiperda) upon infection with recombinant baculovirus construct.
The supernatant was loaded onto a GST-agarose column (Sigma) equilibrated with PBS pH 7.3. Following a four column volume (CV) wash with PBS pH 7.3+1% Triton X-100 and 4 CV wash with buffer B (50 mM Tris pH 8.0, 20% glycerol and 100 mM NaCl), bound proteins were step eluted with 5 CV of buffer B supplemented with 5 mM DTT and 15 mM glutathion. […] Final GST-VEGFR2806-1356 protein preparations concentrations were about 0.7 mg/ml with purity approximating 70%.

[4] = biological target: TPR-MET fusion protein (Homo sapiens, UniProt P08581); assay: C-Met phosphorylation cell-based assay (MNNGHOS cells, immunoblot); conditions: Table 30, 3 hours treatment, read-out: C-Met cell-based Y1230-34-35 tpr-met inhibition (IC50)
Source text: C-Met Phosphorylation Cell-Based Assay

[5] = test system: A549; assay: A549 wound healing inhibition (HGF dependent migration); type: cell-based; conditions: Homo sapiens, Table 31, read-out: A549 wound healing inbib IC50
Source text: (§1) HGF has well known activity in terms of inducing scattering and migration (wound healing) (Wells et al., Cell Motil Cytoskeleton. 2005 November 62(3):180-94; Miura et al., Urology 2001 December 58(6):1064-9; Nishimura et al., Int J. Urol. 1998 May 5(3):276-81; Wang et al., Mol Cancer Ther. 2003 November; 2(11):1085-92; and Christensen et al., Cancer Res. 2003 Nov. 1; 63(21):7345-55).

[6] = test system: DU145; assay: DU145 scattering inhibition (HGF dependent scattering); type: cell-based; conditions: Homo sapiens, DU-145, Table 31, read-out: DU145 scattering inhib IC50
Source text: as §1

[7] = test system: U87 cells; assay: In vivo solid tumor disease model, U87 xenograft; set-up: species or system female athymic CD 1 mice; conditions: U87MG; 100 mg/kg once daily PO; vehicle 5% DMSO - 1% Tween-80 in water; 14 days
Source text: In Vivo Solid Tumor Disease Model
This test measures the capacity of compounds to inhibit solid tumor growth.
Tumor xenografts were established in the flank of female athymic CD 1 mice (Charles River Inc.), by subcutaneous injection of 1×10^6U87, A431 or SKLMS cells/mouse. Once established, tumors were then serially passaged s.c. in nude mice hosts. Tumor fragments from these host animals were used in subsequent compound evaluation experiments. For compound evaluation experiments female nude mice weighing approximately 20 g were implanted s.c. by surgical implantation with tumor fragments of ˜30 mg from donor tumors. When the tumors were approximately 100 mm^3 in size (˜7-10 days following implantation), the animals were randomized a separated into treatment and control groups. Each group contained 6-8 tumor-bearing mice, each of which was ear-tagged and followed individually throughout the experiment
Mice were weighed and tumor measurements are taken by calipers three times weekly, starting on Day 1. These tumor measurements were converted to tumor volume by the well-known formula (L+W/4)^34/3π. The experiment was terminated when the control tumors reached a size of approximately 1500 mm^3. In this model, the change in mean tumor volume for a compound treated group/the change in mean tumor volume of the control group (non-treated or vehicle treated)×100 (ΔT/ΔC) was subtracted from 100 to give the percent tumor growth inhibition (% TGI) for each test compound. In addition to tumor volumes, body weight of animals were monitored twice weekly for up to 3 weeks.
Regiment of administration was once daily.

[8] = Table 30, read-out: C-Met (enz.) (IC50)
[9] = Table 30, read-out: VEGF(enz.) (IC50)

T1 sequence (P08581 1078-1337): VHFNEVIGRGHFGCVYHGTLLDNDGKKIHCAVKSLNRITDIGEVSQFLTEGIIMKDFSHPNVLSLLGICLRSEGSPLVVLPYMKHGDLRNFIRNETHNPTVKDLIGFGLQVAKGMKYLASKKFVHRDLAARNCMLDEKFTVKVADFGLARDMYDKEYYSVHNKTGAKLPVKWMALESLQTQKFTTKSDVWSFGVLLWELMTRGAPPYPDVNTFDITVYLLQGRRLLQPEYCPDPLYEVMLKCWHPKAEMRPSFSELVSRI
T2 sequence (P35968 806-1356): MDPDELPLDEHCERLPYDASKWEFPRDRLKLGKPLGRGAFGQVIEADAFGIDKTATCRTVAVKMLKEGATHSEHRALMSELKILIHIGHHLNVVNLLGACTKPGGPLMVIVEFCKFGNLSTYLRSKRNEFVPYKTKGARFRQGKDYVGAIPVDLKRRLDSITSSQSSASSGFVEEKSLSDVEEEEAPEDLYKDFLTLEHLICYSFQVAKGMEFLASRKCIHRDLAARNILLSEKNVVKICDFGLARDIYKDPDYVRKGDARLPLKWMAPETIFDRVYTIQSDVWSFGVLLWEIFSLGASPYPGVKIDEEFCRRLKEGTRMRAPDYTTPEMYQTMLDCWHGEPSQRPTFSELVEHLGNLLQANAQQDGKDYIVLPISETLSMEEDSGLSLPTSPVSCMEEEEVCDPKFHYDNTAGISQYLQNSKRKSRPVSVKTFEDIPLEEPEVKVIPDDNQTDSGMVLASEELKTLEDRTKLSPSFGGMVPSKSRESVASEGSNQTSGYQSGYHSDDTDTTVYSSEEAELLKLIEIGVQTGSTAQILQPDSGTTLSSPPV
TPR-MET fusion protein, sequence (P08581 with tags, fused parts or gaps): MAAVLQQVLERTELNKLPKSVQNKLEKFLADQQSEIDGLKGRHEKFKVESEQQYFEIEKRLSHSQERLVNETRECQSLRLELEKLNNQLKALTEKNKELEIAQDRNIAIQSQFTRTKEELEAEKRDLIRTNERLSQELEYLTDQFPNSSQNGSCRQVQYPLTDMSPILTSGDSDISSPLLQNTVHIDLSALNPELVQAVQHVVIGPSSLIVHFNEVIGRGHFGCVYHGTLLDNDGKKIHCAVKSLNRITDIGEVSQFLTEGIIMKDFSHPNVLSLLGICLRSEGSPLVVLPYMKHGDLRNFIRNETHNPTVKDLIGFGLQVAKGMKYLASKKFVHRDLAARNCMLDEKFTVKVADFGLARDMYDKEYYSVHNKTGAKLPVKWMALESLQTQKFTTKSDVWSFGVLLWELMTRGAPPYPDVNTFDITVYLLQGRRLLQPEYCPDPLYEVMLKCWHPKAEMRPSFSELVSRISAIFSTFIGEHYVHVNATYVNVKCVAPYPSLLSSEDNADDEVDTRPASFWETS

SMILES | IC50 ([2]; Table 31, read-out: CMet ic50) [nM] | IC50 ([3]; Table 31, read-out: VEGFR IC50) [nM] | IC50 [5] [nM] | IC50 [6] [nM] | other results
Cn1cnc(-c2cc3nccc(Oc4ccc(NC(=S)NC(=O)Cc5ccccc5)cc4)c3s2)c1 [Example 201, N-(4-(2-(1-Methyl-1H-imidazol-4-yl)thieno[3,2-b]pyridin-7-yloxy)phenylcarbamothioyl)-2-phenylacetamide] |  |  |  |  | Tumor Growth Inhibition (%) ([1]; 30 mg/kg once daily IP, vehicle DMSO, 10 days): c (% TGI in the range of 25-49); Tumor Growth Inhibition (%) ([1]; 75 mg/kg once daily PO, vehicle 5% DMSO - 1% Tween-80 in water, 10 days): c (% TGI in the range of 25-49)
CON(C)C(=O)c1cc2nccc(Oc3ccc(NC(=S)NC(=O)Cc4ccccc4)cc3F)c2s1 [Example 10, 1-(4-(2-(N-methoxy-N-methylcarbamoyl)thieno[3,2-b]pyridin-7-yloxy)-3-fluorophenyl)-3-(2-phenylacetyl)thiourea] |  |  |  |  | IC50 [2, 8]: 50 to 250 nM; IC50 [3, 9]: 50 to 250 nM; IC50 [4]: 50 to 250 nM
NC(=O)[C@@H]1CCCN1C(=O)c1cc2nccc(Oc3ccc(NC(=S)NC(=O)Cc4ccccc4)cc3F)c2s1 [Example 40, (S)-1-(7-(2-Fluoro-4-(3-(2-phenylacetyl)thioureido)phenoxy)thieno[3,2-b]pyridine-2-carbonyl)pyrrolidine-2-carboxamide] |  |  |  |  | IC50 [2, 8]: 50 to 250 nM; IC50 [3, 9]: < 50 nM; IC50 [4]: 50 to 250 nM
O=C(Cc1ccccc1)NC(=S)Nc1ccc(Oc2ccnc3cc(C(=O)NCCN4CCOCC4)sc23)c(F)c1 [Example 2, l-(4-(2-(2-morpholinoethylcarbamoyl)thieno[3,2-b]pyridin-7-yloxy)-3-fluorophenyl)-3-(2-phenylacetyl)thiourea] |  |  |  |  | IC50 [2, 8]: 50 to 250 nM; IC50 [3, 9]: < 50 nM; IC50 [4]: 50 to 250 nM
O=C(Cc1ccccc1)NC(=S)Nc1ccc(Oc2ccnc3cc(C(=O)N4CC[C@H](O)C4)sc23)c(F)c1 [Example 39, (S)-N-(3-Fluoro-4-(2-(3-hydroxypyrrolidine-1-carbonyl)thieno[3,2-b]pyridin-7-yloxy)phenylcarbamothioyl)-2-phenylacetamide] |  |  |  |  | Tumor Growth Inhibition (%) ([1]; 30 mg/kg once daily IP, vehicle DMSO, 14 days): b (% TGI in the range of 50-74)
C#Cc1ccccc1CC(=O)NC(=S)Nc1ccc(Oc2ccnc3cc(-c4cn(CC)cn4)sc23)c(F)c1 [drawing 496] |  |  |  |  | Tumor Growth Inhibition (%) ([1]; 40 mg/kg once daily p.o., 14 days): b (% TGI in the range of 50-74)
O=C(Cc1ccccc1)NC(=S)Nc1ccc(Oc2ccnc3cc(-c4ccc(CN5CCOCC5)cc4)sc23)c(F)c1 [Example 56, 1-(3-Fluoro-4-(2-(4-(morpholinomethyl)phenyl)thieno[3,2-b]pyridin-7-yloxy)phenyl)-3-(2-phenylacetyl)thiourea] |  |  |  |  | Tumor Growth Inhibition (%) ([1]; 30 mg/kg once daily IP, vehicle DMSO, 12 days): c (% TGI in the range of 25-49)
CCn1ccnc1-c1cc2nccc(Oc3ccc(NC(=S)NC(=O)Cc4ccccc4)cc3F)c2s1 [Example 73, N-(4-(2-(1-Ethyl-1H-imidadzol-2-yl)thieno[3,2-b]pyridin-7-yloxy)-3-fluorophenylcarbamothioyl)-2-phenylacetamide] |  |  |  |  | Tumor Growth Inhibition (%) [7]: c (% TGI in the range of 25-49)
C#Cc1ccc(CC(=O)NC(=S)Nc2ccc(Oc3ccnc4cc(-c5ccc(CN6CCN(C)CC6)cc5)sc34)c(F)c2)cc1 | 50 to 250 | < 50 | > 10000 | 1000 to 5000 | 
C#Cc1ccccc1CC(=O)NC(=S)Nc1ccc(Oc2ccnc3cc(C4=CCN(C)CC4)sc23)c(F)c1 | < 50 | 50 to 250 | < 1000 | < 1000 | 
O=C(Cc1ccccc1)NC(=S)Nc1ccc(Oc2ccnc3cc(-c4ccc(CN5CCNCC5)cc4)sc23)c(F)c1 | < 50 | < 50 | 1000 to 5000 | < 1000 | 
C#Cc1ccccc1CC(=O)NC(=S)Nc1ccc(Oc2ccnc3cc(-c4nccn4CC)sc23)c(F)c1 | < 50 | < 50 | < 1000 | < 1000 | 
C=C(F)c1ccccc1CC(=O)NC(=S)Nc1ccc(Oc2ccnc3cc(-c4cn(C)cn4)sc23)c(F)c1 | < 50 | < 50 | < 1000 | < 1000 | 
C#Cc1ccccc1CC(=O)NC(=S)Nc1ccc(Oc2ccnc3cc(-c4cn(CC)cn4)sc23)c(F)c1 [drawing 455] | < 50 | < 50 | < 1000 | < 1000 | 
CCn1cnc(-c2cc3nccc(Oc4ccc(NC(=S)NC(=O)Cc5ccc(F)cc5)cc4F)c3s2)c1 | < 50 | < 50 | < 1000 | < 1000 | 
C#Cc1cc(F)ccc1CC(=O)NC(=S)Nc1ccc(Oc2ccnc3cc(-c4cn(C)cn4)sc23)c(F)c1 | < 50 | < 50 | < 1000 | < 1000 | 

The next lines start with results.

IC50 ([2]; Table 31, read-out: CMet ic50) [nM] | IC50 ([3]; Table 31, read-out: VEGFR IC50) [nM] | IC50 [5] [nM] | IC50 [6] [nM] | SMILES | other results
< 50 | < 50 | < 1000 | < 1000 | Cn1cnc(-c2cc3nccc(Oc4ccc(NC(=S)NC(=O)Cc5ccc(F)cc5F)cc4F)c3s2)c1 [drawing 434] | 
< 50 | < 50 | < 1000 | < 1000 | Cn1cnc(-c2cc3nccc(Oc4ccc(NC(=S)NC(=O)Cc5ccc(F)cc5)cc4F)c3s2)c1 [drawing 440] | 
< 50 | > 500 | < 1000 | < 1000 | Cn1ccnc1-c1cc2nccc(Sc3ccc(NC(=S)NC(=O)Cc4ccccc4)cc3)c2s1 | 
< 50 | < 50 | 1000 to 5000 | < 1000 | CCn1cnc(-c2cc3nccc(Oc4ccc(NC(=S)NC(=O)Cc5ccc(F)cc5F)cc4F)c3s2)c1 | 
< 50 | < 50 | 1000 to 5000 | 1000 to 5000 | C#Cc1ccc(F)c(CC(=O)NC(=S)Nc2ccc(Oc3ccnc4cc(-c5nccn5C)sc34)c(F)c2)c1 | 
< 50 | 50 to 250 | < 1000 | < 1000 | O=C(Cc1ccccc1)NC(=S)Nc1ccc(Oc2ccnc3cc(-c4cccc[n+]4[O-])sc23)c(F)c1 | 
< 50 | < 50 | < 1000 | < 1000 | O=C(Cc1ccccc1)NC(=S)Nc1ccc(Oc2ccnc3cc(-c4ccc(CN5CCCC5)cn4)sc23)c(F)c1 | 
< 50 | < 50 | < 1000 | < 1000 | C#Cc1cccc(F)c1CC(=O)NC(=S)Nc1ccc(Oc2ccnc3cc(-c4cn(C)cn4)sc23)c(F)c1 | 
< 50 | < 50 | < 1000 | < 1000 | CCN(CCOC)Cc1ccc(-c2cc3nccc(Oc4ccc(NC(=S)NC(=O)Cc5ccc(F)cc5)cc4F)c3s2)cc1 | 
< 50 | < 50 | < 1000 | < 1000 | C#Cc1cc(F)ccc1CC(=O)NC(=S)Nc1ccc(Oc2ccnc3cc(-c4cccc[n+]4[O-])sc23)c(F)c1 | 
< 50 | 250 to 500 | < 1000 | < 1000 | CN1CC=C(c2cc3nccc(Oc4ccc(NC(=S)NC(=O)Cc5ccc(F)cc5)cc4F)c3s2)CC1 | 
< 50 | 250 to 500 | < 1000 | < 1000 | CCn1cc(-c2cc3nccc(Oc4ccc(NC(=S)NC(=O)Cc5ccccc5)cc4F)c3s2)nn1 | 

Source: patent US20100249145A1, “Inhibitors of VEGF Receptor and HGF Receptor Signaling” (Methylgene, Inc., priority 2005, published 2010)
